Experimental data from patent US20230085307A1, “PYRIDAZINONE COMPOUND AND HERBICIDE” (NISSAN CHEMICAL CORPORATION, priority 2019, published 2023).

Columns and labels:
persian speedwell [1] = experiment: Test Example 4: herbicidal effect by soil treatment (Table 19, symbol R); format: in vivo, Persian speedwell (Veronica persica); conditions: amount of applied herbicide 320 g/ha
How it was run: (§1)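 Scoring uses the grading scale of an earlier test, three weeks post-application. Treatment consists of spraying a diluted emulsion formulation across the surface of sterilized diluvial soil in which seeds are buried near 1.5 cm deep; boxes are kept in a greenhouse between 25° C. and 30° C.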

Chinese sprangletop = experiment: Test Example 3: herbicidal effect by foliage application, Wagner pot (Table 18, symbol D); format: in vivo, chinese sprangletop (Leptochloa chinensis); conditions: 320 g/ha
How it was run: (§2)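 Plants were sown in alluvial soil held under 0.1–0.5 cm standing water and grown 14 days in a greenhouse at 25–30 °C. An emulsifiable formulation, water-diluted to the set dose, was then sprayed onto the foliage, and effects were scored three weeks later using previously defined criteria.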

redroot pigweed [2] = experiment: Test Example 4: herbicidal effect by soil treatment (Table 19, symbol N); format: in vivo, redroot pigweed (Amaranthus retroflexus); conditions: amount of applied herbicide 320 g/ha
How it was run: as §1

redroot pigweed [3] = experiment: Test Example 5: herbicidal effect by foliage application, plastic box (Table 20, symbol N); format: in vivo, redroot pigweed (Amaranthus retroflexus); conditions: foliage application, 320 g/ha, three weeks after application
How it was run: (§3)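 Post-emergence foliar test in sterilized diluvial soil. Compound applied as water-diluted emulsion at a predetermined rate to 14-day-old plants; evaluation at three weeks.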

southern crabgrass [4] = experiment: Test Example 4: herbicidal effect by soil treatment (Table 19, symbol F); format: in vivo, southern crabgrass (Digitaria ciliaris); conditions: amount of applied herbicide 320 g/ha
How it was run: as §1

barnyard grass [5] = experiment: Test Example 5: herbicidal effect by foliage application, plastic box (Table 20, symbol H); format: in vivo, barnyard grass (Echinochloa crus-galli); conditions: foliage application, 320 g/ha, three weeks after application
How it was run: as §3

Italian ryegrass [6] = experiment: Test Example 4: herbicidal effect by soil treatment (Table 19, symbol K); format: in vivo, Italian ryegrass (Lolium multiflorum); conditions: amount of applied herbicide 320 g/ha
How it was run: as §1

lambsquarters [7] = experiment: Test Example 5: herbicidal effect by foliage application, plastic box (Table 20, symbol O); format: in vivo, lambsquarters (Chenopodium album); conditions: foliage application, 320 g/ha, three weeks after application
How it was run: as §3

blackgrass [8] = experiment: Test Example 5: herbicidal effect by foliage application, plastic box (Table 20, symbol J); format: in vivo, blackgrass (Alopecurus myosuroides); conditions: foliage application, 320 g/ha, three weeks after application
How it was run: as §3

blackgrass [9] = experiment: Test Example 4: herbicidal effect by soil treatment (Table 19, symbol J); format: in vivo, blackgrass (Alopecurus myosuroides); conditions: amount of applied herbicide 320 g/ha
How it was run: as §1

chickweed [10] = experiment: Test Example 4: herbicidal effect by soil treatment (Table 19, symbol P); format: in vivo, common chickweed (Stellaria media); conditions: amount of applied herbicide 320 g/ha
How it was run: as §1

windgrass [11] = experiment: Test Example 5: herbicidal effect by foliage application, plastic box (Table 20, symbol L); format: in vivo, windgrass (Apera spica-venti); conditions: foliage application, 320 g/ha, three weeks after application
How it was run: as §3

velvetleaf [12] = experiment: Test Example 5: herbicidal effect by foliage application, plastic box (Table 20, symbol M); format: in vivo, velvetleaf (Abutilon theophrasti); conditions: foliage application, 320 g/ha, three weeks after application
How it was run: as §3

barnyard grass [13] = experiment: Test Example 4: herbicidal effect by soil treatment (Table 19, symbol H); format: in vivo, barnyard grass (Echinochloa crus-galli); conditions: amount of applied herbicide 320 g/ha
How it was run: as §1

barnyard grass [14] = experiment: Test Example 3: herbicidal effect by foliage application, Wagner pot (Table 18, symbol H); format: in vivo, barnyard grass (Echinochloa crus-galli); conditions: 320 g/ha
How it was run: as §2

windgrass [15] = experiment: Test Example 4: herbicidal effect by soil treatment (Table 19, symbol L); format: in vivo, windgrass (Apera spica-venti); conditions: amount of applied herbicide 320 g/ha
How it was run: as §1

green foxtail = experiment: Test Example 5: herbicidal effect by foliage application, plastic box (Table 20, symbol G); format: in vivo, green foxtail (Setaria viridis); conditions: foliage application, 320 g/ha, three weeks after application
How it was run: as §3

persian speedwell [16] = experiment: Test Example 5: herbicidal effect by foliage application, plastic box (Table 20, symbol R); format: in vivo, Persian speedwell (Veronica persica); conditions: foliage application, 320 g/ha, three weeks after application
How it was run: as §3

southern crabgrass [17] = experiment: Test Example 5: herbicidal effect by foliage application, plastic box (Table 20, symbol F); format: in vivo, southern crabgrass (Digitaria ciliaris); conditions: foliage application, 320 g/ha, three weeks after application
How it was run: as §3

Italian ryegrass [18] = experiment: Test Example 5: herbicidal effect by foliage application, plastic box (Table 20, symbol K); format: in vivo, Italian ryegrass (Lolium multiflorum); conditions: foliage application, 320 g/ha, three weeks after application
How it was run: as §3

wild oat [19] = experiment: Test Example 4: herbicidal effect by soil treatment (Table 19, symbol I); format: in vivo, wild oat (Avena fatua); conditions: amount of applied herbicide 320 g/ha
How it was run: as §1

wild oat [20] = experiment: Test Example 5: herbicidal effect by foliage application, plastic box (Table 20, symbol I); format: in vivo, wild oat (Avena fatua); conditions: foliage application, 320 g/ha, three weeks after application
How it was run: as §3

lambsquarters [21] = experiment: Test Example 4: herbicidal effect by soil treatment (Table 19, symbol O); format: in vivo, lambsquarters (Chenopodium album); conditions: amount of applied herbicide 320 g/ha
How it was run: as §1

rice flat sedge = experiment: Test Example 3: herbicidal effect by foliage application, Wagner pot (Table 18, symbol E); format: in vivo, rice flat sedge (Cyperus iria); conditions: 320 g/ha
How it was run: as §2

velvetleaf [22] = experiment: Test Example 4: herbicidal effect by soil treatment (Table 19, symbol M); format: in vivo, velvetleaf (Abutilon theophrasti); conditions: amount of applied herbicide 320 g/ha
How it was run: as §1

chickweed [23] = experiment: Test Example 5: herbicidal effect by foliage application, plastic box (Table 20, symbol P); format: in vivo, common chickweed (Stellaria media); conditions: foliage application, 320 g/ha, three weeks after application
How it was run: as §3

For `CSc1ccccc1-c1sc2ccccc2c1-c1c(O)c(C)nn(C)c1=O` [1-034], the “herbicidal effect rating, R: persian speedwell” value (persian speedwell [1]) was 0 (Herbicidal rate of 5% or less (almost no effect)), the “herbicidal effect on D (Chinese sprangletop), rating 0-5” value (Chinese sprangletop) was 0 (Herbicidal rate of 5% or less (almost no effect)) and the “herbicidal effect rating, N: redroot pigweed” value (redroot pigweed [2]) was 0 (Herbicidal rate of 5% or less (almost no effect)). For the same compound, the “herbicidal effect grade, N: redroot pigweed” value (redroot pigweed [3]) was 0 (Herbicidal rate of 5% or less (almost no effect)), the “herbicidal effect rating, F: southern crabgrass” value (southern crabgrass [4]) was 0 (Herbicidal rate of 5% or less (almost no effect)) and the “herbicidal effect grade, H: barnyard grass” value (barnyard grass [5]) was 0 (Herbicidal rate of 5% or less (almost no effect)). The “herbicidal effect rating, K: Italian ryegrass” value (Italian ryegrass [6]) was 0 (Herbicidal rate of 5% or less (almost no effect)), the “herbicidal effect grade, O: lambsquarters” value (lambsquarters [7]) was 0 (Herbicidal rate of 5% or less (almost no effect)) and the “herbicidal effect grade, J: blackgrass” value (blackgrass [8]) was 0 (Herbicidal rate of 5% or less (almost no effect)). The “herbicidal effect rating, J: blackgrass” value (blackgrass [9]) was 0 (Herbicidal rate of 5% or less (almost no effect)), the “herbicidal effect rating, P: chickweed” value (chickweed [10]) was 3 (Herbicidal rate of 40% or more and less than 70%) and the “herbicidal effect grade, L: windgrass” value (windgrass [11]) was 0 (Herbicidal rate of 5% or less (almost no effect)). For the same compound, the “herbicidal effect grade, M: velvetleaf” value (velvetleaf [12]) was 0 (Herbicidal rate of 5% or less (almost no effect)), the “herbicidal effect rating, H: barnyard grass” value (barnyard grass [13]) was 0 (Herbicidal rate of 5% or less (almost no effect)) and the “herbicidal effect on H (barnyard grass), rating 0-5” value (barnyard grass [14]) was 1 (Herbicidal rate of 5% or more and less than 20%). The “herbicidal effect rating, L: windgrass” value (windgrass [15]) was 0 (Herbicidal rate of 5% or less (almost no effect)), the “herbicidal effect grade, G: green foxtail” value (green foxtail) was 0 (Herbicidal rate of 5% or less (almost no effect)) and the “herbicidal effect grade, R: persian speedwell” value (persian speedwell [16]) was 1 (Herbicidal rate of 5% or more and less than 20%). The “herbicidal effect grade, F: southern crabgrass” value (southern crabgrass [17]) was 0 (Herbicidal rate of 5% or less (almost no effect)), the “herbicidal effect grade, K: Italian ryegrass” value (Italian ryegrass [18]) was 0 (Herbicidal rate of 5% or less (almost no effect)) and the “herbicidal effect rating, I: wild oat” value (wild oat [19]) was 0 (Herbicidal rate of 5% or less (almost no effect)). For the same compound, the “herbicidal effect grade, I: wild oat” value (wild oat [20]) was 2 (Herbicidal rate of 20% or more and less than 40%), the “herbicidal effect rating, O: lambsquarters” value (lambsquarters [21]) was 0 (Herbicidal rate of 5% or less (almost no effect)) and the “herbicidal effect on E (rice flat sedge), rating 0-5” value (rice flat sedge) was 3 (Herbicidal rate of 40% or more and less than 70%). The “herbicidal effect rating, M: velvetleaf” value (velvetleaf [22]) was 0 (Herbicidal rate of 5% or less (almost no effect)) and the “herbicidal effect grade, P: chickweed” value (chickweed [23]) was 4 (Herbicidal rate of 70% or more and less than 90%).
